Where a SMILES comes first, the peptide text is derived from it. The star is where a group is joined. Palmitoyl = CCCCCCCCCCCCCCCC(=O)*
Columns and labels:
TNF alpha = assay: DENV2 infection in AG129 mice: plasma TNF alpha (ELISA); format: in vivo; settings: 10 mg/kg I.P, b.i.d; n = 9; vs vehicle control
Protocol: (§1) Administration of compounds and vehicle to animals started twenty four hours before infection (Day −1). Animals were treated daily (From Day-1 to day 4) as per the experimental design shown below in table 3.1.5. Animals were monitored for general clinical signs, morbidity and mortality. Body weights were measured daily.
Cytokine levels (TNF alpha, IL-6 and IL-12) in plasma samples were measured using Enzyme-Linked Immunosorbent Assay (ELISA). Mouse TNF alpha ELISA Kit (Abcam: ab208348), Mouse IL-6 ELISA Kit (Abcam: ab100712), and Mouse IL-12 p40+IL-12 p70 ELISA Kit (Abcam: ab100699) were used to estimate TNF alpha, IL-6 and IL-12, respectively. The assays were performed according to the manufacturer's instructions and was analysed on a TECAN-NanoQuant Plate™ system.
(§2) The Mean±SD Log10PFU/ml, relative Mean±SD spleen weight, Mean±SD biomarker concentrations were estimated in each group. Significant differences between group means and control were analyzed by one-way ANOVA, followed by a Dunnett's multiple comparison test, using GraphPad Prism 5 at 95% confidence levels. A p value of <0.05 was considered as significant.

[1] = system: Dengue virus 2 (DENV2, ATCC VR-1584); assay: DENV2 infection in AG129 mice: clinical signs, body and spleen weights; format: in vivo; settings: for Body weights of mice at the end of the study (Mean ± SD): b.i.d, n = 9; for general clinical signs of treated animals: 20 and 10 mg/kg
Protocol: (§3) The purpose of this study was to determine the efficacy of the compounds on Dengue virus 2 (DENV2, ATCC® VR-1584™) infection in AG129 mice.
(§4) Six groups of AG129 mice, 6-8 weeks old, with 9 mice per group were used to test compounds according to table 3.1.1. Animal room environment was monitored for temperature and relative humidity twice per day. The temperature range was 22° C.±3° C. and humidity range was 30-70%. The animals were provided with 12 hours light and 12 hours darkness. Feed and drinking water was provided ad libitum. Compounds 43 and 113 were tested.
C6/36 (ATCC(CRL-1660) cell lines were grown in RPMI 1640 medium (Gibco/HiMedia) plus 5% fetal bovine serum at 28° C. Dengue virus type 2 (ATCC®VR-1584™) New Guinea C(NGC, DENV2) was passaged in BHK-21 cell cultures to make sufficient stocks for assay. Virus titer was determined by TCID50 method using BHK-21 cells.
(§5) Twenty-four hours post treatment (Day 0), animals were injected intraperitoneally (IP) with 0.2 ml of virus suspension (˜5×10^7/animal).
The vehicle for tested compounds was 5% DMSO+95% (20%) hydroxypropylcyclodextrin. […] Formulations were prepared daily immediately before dosing.
as §1
Animals were sacrificed on day 5 post infection with Isoflurane followed by an overdose of CO2. Spleens were excised, measured and weighed.
as §2

WNV protease = target: T1, WNV protease (West Nile virus, UniProt P06935); assay: WNV protease assay (analogous procedure); format: biochemical; settings: read-out: IC50 for WNNV
T1 construct: a trypsin-like serine protease domain in the N-terminal region of the flaviviral NS3 proteins
T1 sequence (P06935 1424-1463): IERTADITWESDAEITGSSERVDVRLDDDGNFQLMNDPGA
T1 sequence (P06935 1502-1679): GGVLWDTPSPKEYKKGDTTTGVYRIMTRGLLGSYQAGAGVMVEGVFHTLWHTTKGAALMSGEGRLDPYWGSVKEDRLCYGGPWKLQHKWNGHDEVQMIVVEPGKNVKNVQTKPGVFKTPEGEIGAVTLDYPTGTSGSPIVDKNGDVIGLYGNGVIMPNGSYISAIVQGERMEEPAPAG

[2] = system: Dengue virus 2 (DENV2, ATCC VR-1584); assay: DENV2 infection in AG129 mice: viral load in plasma (plaque assay); format: in vivo; settings: b.i.d
Protocol: as §3, §4, §5, §1
Blood was collected on days-1, 0, 1, 2, 3, 4 to 5.
BHK-21 cells were cultured to approximately 80% confluency in 24-well plates (NUNC, NY, USA). Plasma samples were 10-fold serially diluted in RPMI 1640 (GIBCO). BHK-21 monolayers were infected with 100 μl of each virus dilution. After incubation at 37° C. and 5% CO2 atmosphere for one hour with rocking at 15 min intervals, the medium was decanted and 1 ml of 1% (w/v)carboxymethyl cellulose in RPMI supplemented with 2% FCS was added to each well. After four days incubation at 37° C. in 5% CO2, the cells were fixed with 4% paraformaldehyde and stained for 30 min with […] of 1% crystal violet dissolved in 37% formaldehyde. After thorough rinsing with water, plates were dried and the plaques were scored visually.
as §2

DENV protease = target: T2, DENV protease (Dengue virus type 2, UniProt P29990); assay: biochemical; settings: for inhibition at 50 µM: read-out: inhibition of DENV
T2 construct: The virus-encoded dengue protease comprises the amino-terminal 180 amino acids of NS3 (NS3pro) of the polyprotein
T2 sequence (P29990 1398-1437): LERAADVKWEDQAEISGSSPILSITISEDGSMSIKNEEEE
T2 sequence (P29990 1476-1653): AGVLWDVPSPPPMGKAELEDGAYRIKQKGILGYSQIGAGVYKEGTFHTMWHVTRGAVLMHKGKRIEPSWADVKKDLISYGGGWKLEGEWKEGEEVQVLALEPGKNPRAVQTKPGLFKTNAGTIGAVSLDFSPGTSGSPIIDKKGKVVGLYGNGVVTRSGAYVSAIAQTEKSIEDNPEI
In short: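 DENV protease (100 nM) was pre-incubated 15 min with inhibitors in 50 mM Tris-HCl pH 9.0, 10% ethylene glycol, 0.0016% Brij 58. FRET substrate (50 μM final) started the reaction, monitored 15 min as RFU/s slope. IC50 came from triplicate means versus concentration.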

[3] = parameters: species or system mice; settings: mouse, in vivo
Excerpt: FIG. 5A-multidose PK-profiles of compound 113 in mice after intravenous (IV), intraperitoneal (IP) and subcutaneous (SC) administration to mice (dosed twice per day for 5 days, mean of 3 mice per group).
FIG. 5D-multidose PK-profiles of compound 43 in mice after intravenous (IV), intraperitoneal (IP) and subcutaneous (SC) administration to mice (dosed twice per day for 5 days, mean of 3 mice per group).
Similar data was obtained with compound 43 (FIG. 5D)

| Compound | Plasma concentration of TNF-alpha in mouse plasma after treatment (TNF alpha) | Body weights of mice at the end of the study (Mean ± SD) ([1]; 10 mg/kg I.P) [g] | Body weights of mice at the end of the study (Mean ± SD) ([1]; 20 mg/kg I.P) [g] | general clinical signs of treated animals [1] | IC50 (WNV protease) [µM] | Mean + SD Log10PFU/ml Plasma ([2]; Day 2, 10 mg/kg I.P) [Log10PFU/ml] | Mean + SD Log10PFU/ml Plasma ([2]; Day 2, 20 mg/kg I.P) [Log10PFU/ml] | Mean + SD Log10PFU/ml Plasma ([2]; Day 5, 10 mg/kg I.P) [Log10PFU/ml] | Mean + SD Log10PFU/ml Plasma ([2]; Day 5, 20 mg/kg I.P) [Log10PFU/ml] | EC50 (West Nile virus) [µM] | inhibition at 50 µM (DENV protease) [%] | pharmacokinetic behaviour when administered subcutaneously ([3]; sc) | Mean + SD Log10PFU/ml Plasma ([2]; Day 4, 10 mg/kg I.P) [Log10PFU/ml] | inhibition of DENV protease (in words) (DENV protease; biochemical and cellular infection assays) | pharmacokinetic profiles [3] | elimination in blood plasma ([3]; sc) |
| --- | --- | --- | --- | --- | --- | --- | --- | --- | --- | --- | --- | --- | --- | --- | --- | --- |
| CCCCCCCCCCCCCCCC(=O)N[C@@H](CCCNC(=N)N)C(=O)N[C@@H](CCC(N)=O)C(=O)N[C@@H](Cc1ccccc1)C(N)=O [compound 43] (Palmitoyl-Arg-Gln-Phe-NH2) | 32.45 ± 12.30 | 18.78 ± 2.28 | 18.11 ± 1.45 | apparently normal | ≤ 40 | 3.36 ± 0.41 | 3.48 ± 0.25 | 3.28 ± 0.21 | 3.06 ± 0.31 | ≤ 25 | ≥ 25 | improved pharmacokinetic behaviour | – | – | – | – |
| CCCCCCCCCCCCCCCC(=O)N[C@@H](CCCCN)CC(=O)N[C@@H](C)C(=O)N[C@@H](C)CC(=O)N[C@H](CCCCN)C(N)=O (stereo in doubt) [compound 113] | 25.99 ± 9.19 | 17.22 ± 1.39 | 16.89 ± 1.36 | apparently normal | ≤ 40 | 3.79 ± 0.10 | 3.07 ± 0.28 | 3.66 ± 0.11 | 3.77 ± 0.11 | ≤ 25 | ≥ 25 | improved pharmacokinetic behaviour | 4.65 ± 0.08 | potent and specific inhibition | reliable pharmacokinetic profiles with limited inter animal variability and dose proportionality | slow elimination |
